# Results reported in patent publication US11555212B2, “Process for the production of sulfated phenolic compounds using modified Escerichia coli” (CysBio ApS, priority 2016, dated 2023).
# Tests used:
# RmXAL = molecular target: T1, RmXAL (Rhodotorula mucilaginosa, UniProt P10248); test: pHCA and zosteric acid in culture media of E. coli expressing a tyrosine ammonia lyase; type: cell-based, Rhodotorula mucilaginosa/Rhodotorula rubra; conditions: E. coli BL21(DE3)pLysS expressing RmXAL alone, M9 glucose, 0.1 mM IPTG, no substrate added
# T1 construct: The gene encoding RmXAL was codon optimized using standard algorithms for expression in E. coli; expressed in transfected cells; host or cells: E. coli BL21(DE3)pLysS
# T1 sequence (P10248 whole entry): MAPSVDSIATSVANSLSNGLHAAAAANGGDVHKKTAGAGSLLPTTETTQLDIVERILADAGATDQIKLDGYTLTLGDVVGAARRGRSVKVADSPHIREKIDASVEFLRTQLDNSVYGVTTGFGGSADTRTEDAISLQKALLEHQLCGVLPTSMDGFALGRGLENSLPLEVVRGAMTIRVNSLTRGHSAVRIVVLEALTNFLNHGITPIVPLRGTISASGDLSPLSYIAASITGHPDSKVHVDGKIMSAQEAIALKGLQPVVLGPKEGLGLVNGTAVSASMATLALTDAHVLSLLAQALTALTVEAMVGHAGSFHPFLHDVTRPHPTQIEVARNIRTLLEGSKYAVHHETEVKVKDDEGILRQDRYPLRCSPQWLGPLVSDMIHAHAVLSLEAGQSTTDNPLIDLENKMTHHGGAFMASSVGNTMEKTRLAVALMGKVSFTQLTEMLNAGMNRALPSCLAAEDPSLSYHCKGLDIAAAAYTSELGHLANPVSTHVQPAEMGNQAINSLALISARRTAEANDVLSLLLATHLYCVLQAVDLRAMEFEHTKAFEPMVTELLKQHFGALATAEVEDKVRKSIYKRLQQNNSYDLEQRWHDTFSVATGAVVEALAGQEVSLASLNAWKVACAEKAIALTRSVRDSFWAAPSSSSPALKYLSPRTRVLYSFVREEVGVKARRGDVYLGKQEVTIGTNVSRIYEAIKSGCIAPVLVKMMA
# Experimental: (§1) The concentration of p-courmaric acid (pHCA) and zosteric acid in the supernatant was quantified by high performance liquid chromatography (HPLC) and compared to chemical standards. HPLC was done on a Thermo setup using a HS-F5 column and mobile phases: 5 mM ammonium formate pH 4.0 (A) and acetonitrile (B) at 1.5 mL min-1, using a gradient elution starting at 5% B. From 0.5 min after injection to 7 min, the fraction of B increased linearly from 5% to 60%, and between 9.5 min and 9.6 the fraction of B decreased back to 5%, and remaining there until 12 min. pHCA and zosteric acid were quantified by measuring absorbance at 277 nm.
# (§2) The enzyme RmXAL from Rhodotorula mucilaginosa/Rhodotorula rubra (SEQ ID NO: 46) has tyrosine ammonia lyase activity, thus catalyzing the non-oxidative deamination of the amino acid tyrosine, releasing p-coumaric acid (pHCA) and ammonia. The gene encoding RmXAL was codon optimized using standard algorithms for expression in E. coli available by GeneArt (Life Technologies) and amplified by PCR using the primers shown in Table 5 and inserted into the pCDFDuet-1 vector (Novagen/Life Technologies), which had been digested by the restriction enzymes NdeI and BgIII, using Gibson reaction (New England Biolabs). […]
# SULT1A1 human [1] = molecular target: T2, SULT1A1 human (Homo sapiens, UniProt P50225, V223M); test: pHCA and zosteric acid in culture media of E. coli expressing an aryl sulfotransferase in combination with a tyrosine ammonia lyase; type: cell-based; conditions: E. coli BL21(DE3)pLysS expressing SULT1A1 Homo sapiens and RmXAL, M9 glucose, 0.1 mM IPTG, no substrate added
# T2 construct: expressed in transfected cells; host or cells: E. coli BL21(DE3)pLysS
# T2 sequence (P50225 whole entry V223M): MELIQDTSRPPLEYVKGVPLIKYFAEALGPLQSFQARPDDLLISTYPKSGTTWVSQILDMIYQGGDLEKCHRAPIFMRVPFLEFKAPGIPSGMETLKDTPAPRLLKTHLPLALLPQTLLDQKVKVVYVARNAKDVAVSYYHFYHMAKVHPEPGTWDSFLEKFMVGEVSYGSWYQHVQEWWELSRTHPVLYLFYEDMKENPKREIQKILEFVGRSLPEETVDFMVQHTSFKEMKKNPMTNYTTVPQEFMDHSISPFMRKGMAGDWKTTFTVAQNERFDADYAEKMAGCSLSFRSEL
# Experimental: as §1, §2
# SULT1A1 rat = molecular target: T3, SULT1A1 rat (Rattus norvegicus, UniProt P17988); test: Titers of zosteric acid in Saccharomyces cerevisiae expressing a sulfotransferase; type: cell-based; conditions: S. cerevisiae CEN.PK102-5B, modified Delft medium, 10 mM p-coumaric acid, overnight 30° C.
# T3 construct: expressed in transfected cells; host or cells: Saccharomyces cerevisiae CEN.PK102-5B (plasmids pCBJ283, pCBJ284)
# T3 sequence (P17988 whole entry): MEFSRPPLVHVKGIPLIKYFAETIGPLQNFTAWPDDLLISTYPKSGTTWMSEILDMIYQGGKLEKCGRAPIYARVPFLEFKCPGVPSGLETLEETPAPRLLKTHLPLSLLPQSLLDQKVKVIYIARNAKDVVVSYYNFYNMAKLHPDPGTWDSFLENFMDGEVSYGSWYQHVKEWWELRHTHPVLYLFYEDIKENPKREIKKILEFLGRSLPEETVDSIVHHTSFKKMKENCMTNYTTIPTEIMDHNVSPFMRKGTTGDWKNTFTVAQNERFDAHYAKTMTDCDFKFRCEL
# Experimental: as §1
# The gene encoding aryl sulfotransferase SULT1A (Example 1) was cloned after a TEF1 promoter into an episomal plasmid with a 2-micron origin of replication as follows. The gene was amplified by PCR using primers CBJP633 and CBJP634. Alternatively, the gene was codon-optimized for E. coli and synthesized by GeneArt and amplified by primers CBJP635 and CBJP636. The TEF1 promoter (Jensen et al., 2014, FEMS Yeast Res 14: 238-248) was amplified by PCR using the primers PTEF1_fw and PTEF1_rv. Plasmid pCfB132 (Jensen et al., supra) was digested by restriction enzymes AsiSI and Nt.Bsml. […]
# [2] = molecular target: T4, SULT1A1 Canis lupus familiaris (Canis lupus familiaris, UniProt Q29476); test: Percent conversion of substrates by E. coli expressing a sulfotransferase; type: cell-based; conditions: E. coli BL21(DE3)pLysS expressing SULT1A1 Canis lupus familiaris; M9; pHCA 100 μM, resveratrol 95 μM or kaempferol 87 μM; overnight 37° C.
# T4 construct: 1, 3, 4, 5, and 6 were cloned amplified from liver tissue cDNA; expressed in transfected cells; host or cells: E. coli BL21(DE3)pLysS
# T4 sequence (Q29476 whole entry): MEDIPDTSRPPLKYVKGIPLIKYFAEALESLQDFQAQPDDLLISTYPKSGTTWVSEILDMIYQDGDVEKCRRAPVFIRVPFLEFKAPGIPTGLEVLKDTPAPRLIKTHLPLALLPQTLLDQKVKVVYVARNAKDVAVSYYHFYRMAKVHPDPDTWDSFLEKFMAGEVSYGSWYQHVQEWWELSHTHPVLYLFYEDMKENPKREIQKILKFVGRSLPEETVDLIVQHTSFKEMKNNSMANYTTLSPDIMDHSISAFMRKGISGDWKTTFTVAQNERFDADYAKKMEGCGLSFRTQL
# Experimental: as §1
# (§3) Different sulfotransferases were examined for their substrate specificities against three substrates. We tested the sulfotransferases mentioned in example 1, as well as additional ones. The genes encoding these were cloned as described in example 1 using the primers shown in the table below from cDNA libraries of the respective organisms, except for the SULT1A1 from rat (Rattus norvegicus) codon-optimized for E. coli (described above). The resulting vectors were transformed into BL21(DE3)pLysS.
# (§4) The resulting strains were grown in M9 medium containing either 100 μM pHCA, 95 μM resveratrol or 87 μM kaempferol. The cultures were grown overnight at 37° C., 300 rpm. The following day the supernatants were isolated and examined by HPLC as described in example 1.
# [3] = molecular target: T5, SULT1A1 Rattus norvegicus (Rattus norvegicus, UniProt P17988); test: as above; type: cell-based; conditions: M9, pHCA 100 μM, resveratrol 95 μM or kaempferol 87 μM, overnight 37° C.
# T5 construct: 1, 3, 4, 5, and 6 were cloned amplified from liver tissue cDNA; expressed in transfected cells
# T5 sequence (P17988 whole entry): as the sequence (P17988 whole entry) above
# Experimental: as §1, §3, §4
# [4] = test system: SULT1A1 Sus scrofa domesticus; test: as above; type: cell-based; conditions: E. coli BL21(DE3)pLysS expressing SULT1A1 Sus scrofa domesticus; M9; pHCA 100 μM, resveratrol 95 μM or kaempferol 87 μM; overnight 37° C.
# Experimental: as §1, §3, §4
# SULT1A1 human [5] = molecular target: T2, SULT1A1 human; test: as above; type: cell-based; conditions: E. coli BL21(DE3)pLysS expressing SULT1A1 human; M9; pHCA 100 μM, resveratrol 95 μM or kaempferol 87 μM; overnight 37° C.
# Experimental: as §1, §3, §4
# E. coli MG1655 = test: Toxicity of unsulfated or sulfated product: growth rates of E. coli; conditions: M9 minimal media, 0.2% glucose, pH 7, 37° C.; pHCA 10-40 mM; zosteric acid 20 mM or 40 mM
# Experimental: E. coli MG1655 was grown in chemically defined M9 minimal media with 0.2% glucose as a carbon source without further addition or with the additions of either 10 mM, 20 mM, 25 mM, 30 mM, 35 mM or 40 mM p-coumaric acid (pHCA), or with 20 mM or 40 mM of the sulfate ester of pHCA (zosteric acid). All media preparations had been adjusted to pH 7. Cells were grown at 37° C. with 250 rpm shaking in an orbital shaker. The growth rates were examined by following the optical density at 600 nm.
Compound,Zosteric acid formed (RmXAL),Zosteric acid formed (SULT1A1 human [1]),μM ZA (averages and standard deviations of replicate experiments) (SULT1A1 rat; SULT1A1 rat (codon optimized for E. coli)),μM ZA (averages and standard deviations of replicate experiments) (SULT1A1 rat; SULT1A1 rat (native)),pHCA (RmXAL),pHCA (SULT1A1 human [1]),Percent conversion of the substrate [2],Percent conversion of the substrate ([3]; E. coli BL21(DE3)pLysS expressing SULT1A1 Rattus norvegicus (Codon-optimized for E. coli)),Percent conversion of the substrate ([3]; E. coli BL21(DE3)pLysS expressing SULT1A1 Rattus norvegicus),Percent conversion of the substrate [4],Percent conversion of the substrate (SULT1A1 human [5]),"Toxicity to the cells (growth rates in exponential growth phase, OD 600 nm, FIG. 4) (E. coli MG1655)"
"O=C(O)/C=C/c1ccc(OS(=O)(=O)O)cc1 [Zosteric acid, zosteric acid]",Not detectable,0.01 mM,46.2 ± 3.5 µM,37.8 ± 5.7 µM,,,,,,,,
"O=C(O)/C=C/c1ccc(O)cc1 [pHCA, p-coumaric acid]",,,,,0.04 mM,0.02 mM,34%,73%,93%,8%,39%,toxic to the cells
